From BindingDB's records for doi:10.1021/jm00128a026 (Roche Research Center, 1989)

What was measured:
[1] = biological target: Platelet-activating factor receptor (Canis lupus familiaris); assay: Inhibition of [3H]PAF binding to dog platelets.
[2] = biological target: Platelet-activating factor receptor (Canis lupus familiaris); assay: Inhibition of [3H]PAF binding to dog platelets.; remark: listed apart in the source

Structure (SMILES)	IC50 [1] [nM]	IC50 [2] [nM]
COc1ccc(C(=C/C=C/C(=O)N[C@@H](CCCc2cccnc2)C2CC2)c2ccc(OC)cc2)cc1	60	–
COc1ccc(/C(C)=C/C=C/C(=O)N[C@H](C)CCCc2cccnc2)cc1	–	25
Cc1ccc(C(=C/C=C/C(=O)N[C@H](C)CCCc2cccnc2)c2ccc(C)cc2)cc1	250	–
COc1ccc(C(=C/C=C/C(=O)NCCCCc2cccnc2)c2ccc(OC)cc2)cc1	25	–
COc1ccc(C(=C/C=C/C(=O)Nc2ccc(Cc3cccnc3)cc2)c2ccc(OC)cc2)cc1	250	–
CCCC/C(=C\C=C\C(=O)N[C@H](C)CCCc1cccnc1)c1ccc(OC)cc1	14	–
COc1ccc(C(=C/C=C/C(=O)Nc2ccc(-c3cccnc3)cc2)c2ccc(OC)cc2)cc1	10	–
CCC[C@H](CCCc1cccnc1)NC(=O)/C=C/C=C(c1ccc(OC)cc1)c1ccc(OC)cc1	> 1000	–
O=C(/C=C\C=C(c1ccccc1)c1ccccc1)NCCCCc1cccnc1	400	–
O=C(CCC=C(c1ccccc1)c1ccccc1)NCCCCc1cccnc1	100	–
O=C(/C=C/C=C(c1ccc(Cl)cc1)c1ccc(Cl)cc1)NCCCCc1cccnc1	–	60
O=C(C/C=C/C=C(c1ccccc1)c1ccccc1)NCCCCc1cccnc1	55	–
COc1ccc(/C=C/C=C/C(=O)N[C@H](C)CCCc2cccnc2)cc1	30	–
CC[C@@H](CCCc1cccnc1)NC(=O)/C=C/C=C(c1ccc(OC)cc1)c1ccc(OC)cc1	–	400
O=C(CCCCC=C(c1ccccc1)c1ccccc1)NCCCCc1cccnc1	550	–
CCCC[C@H](CCCc1cccnc1)NC(=O)/C=C/C=C(c1ccc(OC)cc1)c1ccc(OC)cc1	> 1000	–
COc1cccc(/C(=C/C=C/C(=O)NCCCCc2cccnc2)c2cccc(F)c2)c1	–	40
CC[C@H](CCCc1cccnc1)NC(=O)/C=C/C=C(c1ccc(OC)cc1)c1ccc(OC)cc1	120	–
COc1ccccc1C(=C/C=C/C(=O)NCCCCc1cccnc1)c1ccccc1OC	40	–
CCC/C(=C\C=C\C(=O)N[C@H](C)CCCc1cccnc1)c1ccc(OC)cc1	50	–
CC/C(=C\C=C\C(=O)N[C@H](C)CCCc1cccnc1)c1ccc(OC)cc1	–	30

Structure (SMILES)	IC50 [1] [nM]	IC50 [2] [nM]
COc1ccc(/C(=C/C=C/C(=O)N[C@H](C)CCCc2cccnc2)C(C)C)cc1	–	40
COc1cccc(C(=C/C=C/C(=O)N[C@H](C)CCCc2cccnc2)c2cccc(OC)c2)c1	35	–
COc1ccc(C(=C/C=C/C(=O)NC(C)CCCc2cccnc2C)c2ccc(OC)cc2)cc1 (stereo unspecified)	–	30
COc1cccc(C(=C/C=C/C(=O)N[C@@H](C)CCCc2cccnc2)c2cccc(OC)c2)c1	–	300
O=C(/C=C/C=C(c1ccc(F)cc1)c1ccc(F)cc1)NCCCCc1cccnc1	40	–
COc1ccc(/C(=C/C=C/C(=O)N[C@H](C)CCCc2cccnc2)C2CCCCC2)cc1	20	–
COc1cccc(C(=C/C=C/C(=O)NCCCCc2cccnc2)c2cccc(OC)c2)c1	2	–
COc1ccc(C(=C/C=C/C(=O)NCCCCc2cccnc2)c2ccc(OC)c(OC)c2)cc1OC	55	–
O=C(/C=C/C=C(c1cccc(F)c1)c1cccc(F)c1)NCCCCc1cccnc1	20	–
COc1ccc(C(=C/C=C/C(=O)N[C@@H](CCCc2cccnc2)C2CCCC2)c2ccc(OC)cc2)cc1	> 1000	–
COc1ccc(/C(=C\C=C\C(=O)N[C@H](C)CCCc2cccnc2)c2ccccc2)cc1	–	4
COc1ccc(/C(=C\C=C\C(=O)N[C@H](C)CCCc2cccnc2)C2CCCCC2)cc1	20	–
COc1ccc(C(=C/C=C/C(=O)NCCOCc2cccnc2)c2ccc(OC)cc2)cc1	–	250
CCCCCCCC/C(=C\C=C\C(=O)N[C@H](C)CCCc1cccnc1)c1ccc(OC)cc1	–	5
COc1ccc(/C(=C/C=C/C(=O)N[C@H](C)CCCc2cccnc2)c2ccccc2)cc1	2	–
CCCCC/C(=C/C=C/C(=O)N[C@H](C)CCCc1cccnc1)c1ccc(OC)cc1	10	–
COc1ccc(C(=C/C=C/C(=O)N[C@H](C)CCCc2cccnc2)c2ccc(OC)c(OC)c2)cc1OC	50	–
O=C(C=C(c1ccccc1)c1ccccc1)NCCCCc1cccnc1	450	–
COc1ccc(C(=C/C=C/C(=O)NC(C)(C)CCCc2cccnc2)c2ccc(OC)cc2)cc1	85	–
COc1cccc(/C(=C\C=C\C(=O)NCCCCc2cccnc2)c2cccc(F)c2)c1	25	–
